Assay [1] concerns THP-1 monocyte-derived macrophages. Briefly: Cytotoxicity in THP-1 monocyte-derived macrophages (LDH activity). The format is cell-based, human. To be noted: Homo sapiens, THP-1; LDH activity. How it is done: THP-1 cells were grown in RPMI-1640 medium (Gibco, Leiden, The Netherlands) supplemented with 10% heat-inactivated FCS, antibiotics, 10 mM HEPES, 2 mM glutamine, and 1 mM sodium pyruvate, pH 7.2, at 37 °C and 5% CO2.
(§1) THP-1 monocytes were seeded in a 48-well plate at a concentration of 5 × 10^5 cells/mL (250 μL/well) in RPMI complete medium supplemented with phorbol 12-myristate 13-acetate (PMA) (100 ng/mL). Differentiation of THP-1 monocytes to macrophages was allowed for 24 h at 37 °C and 5% CO2. THP-1-derived macrophages were infected with GFP-expressing axenic amastigotes at 5 × 10^6 parasites/mL in RPMI complete medium for 24 h (250 μL/well). Extracellular amastigotes were washed twice with PBS. The remaining extracellular parasites were challenged for 24 h with THP-1 medium supplemented with 10% horse serum (Gibco) instead of FCS. Cells were washed twice with PBS, and treatments were performed in 250 μL of fresh RPMI medium supplemented with 10% horse serum for 72 h at 37 °C and 5% CO2. Afterward, treatments were removed by two PBS washes. Lysis of infected cells was performed with 120 μL of SDS 0.005% (w/v) in PBS. After a 30 min incubation at 37 °C, lysis was stopped by adding RPMI complete medium with PI at 20 μg/mL (120 μL/well). The lysates were transferred to a 96-well plate (200 μL/well), and the GFP^+ amastigotes extracted from the infected cells were acquired by a Beckman Coulter FC500 flow cytometer. Each sample (100 μL) was acquired for 20 s.
Cytotoxicity of THP-1 infected macrophages was determined using an in-house developed lactate dehydrogenase (LDH) activity assay. LDH activity assays from the remaining cell lysates (100 μL/well) were carried out at 37 °C in 250 μL of Tris/HCl buffer (pH 8.9, 50 mM) containing DL-lactate (840 mM), NAD^+ (450 μM), 1-methoxyphenazine methosulfate (45 μM), and nitro blue tetrazolium chloride (40 μM). The color intensity of the generated formazan dye was monitored at 570 nm using an EnSpire Multimode Plate Reader (PerkinElmer, Waltham, MA). CC50 values were calculated using a nonlinear regression model with GraFit 6 software (Erithacus, Horley, Surrey, U.K.).

Assay [2] has as its system L. infantum intracellular amastigotes. Kind of assay: Leishmanicidal activity in amastigote-infected THP-1 monocyte-derived macrophages. Type of assay: cell-based, Leishmania infantum. How it is done: as §1
The relative number of GFP^+ intracellular amastigotes per cell in each sample was estimated after the division of the total number of GFP+ amastigotes by the LDH activity value of the sample. Results were normalized to the vehicle-treated controls. EC50 values of intracellular amastigotes were calculated using a nonlinear regression model with GraFit 6 software (Erithacus, Horley, Surrey, U.K.). All of the assays were conducted in at least three independent experiments.

The next assay concerns the target T1, TbTryR (Trypanosoma brucei brucei, UniProt P39051).
T1 construct: HIS; made in house; host or cells: E. coli
Kind of assay: TryR oxidoreductase activity, DTNB-coupled assay (TbTryR). The format is biochemical. From the text:
The DNA coding sequences for Homo sapiens GR, T. brucei TryR, and T. congolense TryR were polymerase chain reaction (PCR)-amplified and cloned in the pRSETA plasmid. The DNA coding for hGR (transcript variant 1; NCBI Reference Sequence: NM_000637.5) was purchased from GeneScript. Genomic DNA from T. congolense parasites was kindly provided by Dr. Stefan Magez (University of Vrije, Brussels). Genomic DNA from the T. brucei S16 cell line was kindly provided by José M. Pérez-Victoria. Instituto de Parasitología y Biomedicina “López—Neyra” CSIC. HIS-tagged recombinant T. brucei and T. congolense TryRs (TbTryR and TcoTryR, respectively) were purified from E. coli as already explained for LiTryR.
TryR oxidoreductase activity was determined spectrophotometrically using a modified version of the DTNB-coupled assay described by Hamilton et al.[52] Briefly, reactions were carried out at 26 °C in 250 μL of N-(2-hydroxyethyl)piperazine-N′-ethanesulfonic acid (HEPES) buffer (pH 7.5, 40 mM) containing ethylenediaminetetraacetic acid (EDTA) (1 mM), NADP^+ (30 μM), DTNB (25 μM), TS2 (1 μM), NADPH (150 μM), glycerol (0.02%), DMSO (1.75%), and recombinant TryR (7 nM). […] Reactions were started by addition of a mixture of NADPH and TS2.
TryR oxidoreductase activity was monitored at 26 °C by an increase in absorbance at 412 nm in an EnSpire Multimode Plate Reader (PerkinElmer, Waltham, MA). […] (TNB) concentration was obtained by multiplying the absorbance values by 100 (50 μM TNB generates 0.5 arbitrary units of absorbance at 412 nm). In this DTNB-coupled assay, one molecule of T(SH)2 reduces one molecule of DTNB, producing two TNB molecules. All of the assays were conducted in at least three independent experiments. Data were analyzed using a nonlinear regression model with GraFit 6 software (Erithacus, Horley, Surrey, U.K.).

[3] abbreviates: Leishmania infantum, THP-1, 72 h, amastigote-infected THP-1 macrophages, 72 h, read-out: EC50 intracellular amastigotes.
The mark [4] stands for this setting: Leishmania infantum, THP-1, 72 h, read-out: EC50 intracellular amastigotes, amastigote-infected THP-1 macrophages, 72 h.
Setting [5] is: read-out: IC50, oxidoreductase activity of TbTryR.

Structures are written as SMILES. Where two headings read alike, the source gives them in different places. Some results are limits rather than exact numbers.

T1 sequence (P39051 whole entry): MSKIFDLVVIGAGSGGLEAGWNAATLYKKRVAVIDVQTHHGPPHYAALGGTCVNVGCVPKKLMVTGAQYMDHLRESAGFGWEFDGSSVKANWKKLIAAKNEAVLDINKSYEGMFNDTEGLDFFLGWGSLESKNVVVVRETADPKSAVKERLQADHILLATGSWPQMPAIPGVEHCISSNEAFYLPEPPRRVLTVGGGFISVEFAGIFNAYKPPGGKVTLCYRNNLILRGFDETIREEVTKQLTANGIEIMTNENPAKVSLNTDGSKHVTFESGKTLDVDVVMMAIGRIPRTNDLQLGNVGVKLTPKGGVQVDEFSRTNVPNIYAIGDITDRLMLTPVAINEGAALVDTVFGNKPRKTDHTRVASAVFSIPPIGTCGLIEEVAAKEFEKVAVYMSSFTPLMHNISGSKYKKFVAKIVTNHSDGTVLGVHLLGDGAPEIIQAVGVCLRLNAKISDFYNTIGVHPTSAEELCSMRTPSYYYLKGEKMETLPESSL

Regarding `NCCCCc1cn(-c2ccc(-c3nc(CCc4ccc5c(c4)CCCN5)cs3)c(OCCN3CCNC3=O)c2)nn1.O=C(O)C(F)(F)F.O=C(O)C(F)(F)F` [12q], the EC50 in assay [1] and in assay [2] (setting [3]) was over 75 µM each time.
With `NCCCCc1cn(-c2ccc(-c3nc(-c4cccc(-c5csc(-c6ccc(-n7cc(CCCCN)nn7)cc6OCCN6CCNC6=O)n5)c4)cs3)c(OCCN3CCNC3=O)c2)nn1.O=C(O)C(F)(F)F.O=C(O)C(F)(F)F` [compound 22, 1,1′-((((1,3-Phenylenebis(thiazole-4,2-diyl))bis(5-(4-(4-ammoniobutyl)-1H-1,2,3-triazol-1-yl)-2,1-phenylene))bis(oxy))bis(ethane-2,1-diyl))bis(imidazolidin-2-one)bis(2,2,2-trifluoroacetate)], the EC50 – broadly, the concentration at which the effect is half-maximal – in assay [1] turned out to be 48.4 ± 14.5 µM; in assay [2] (setting [4]) it was 22 µM; in assay [2] (read-out: EC50 intracellular amastigotes, amastigote-infected THP-1 macrophages, 72 h), 22.2 ± 6.4 µM. Also, the “SI (intracellular amastigotes)” value in assay [2] (THP-1 / intracellular amastigotes) was determined as 2.2. The IC50 (usually the concentration that gives 50% inhibition) on TbTryR (setting [5]) turned out to be 1 ± 0.3 µM.
In the case of `NCCNCc1nccn1-c1ccc(-c2nc(CCc3ccc4ccccc4c3)cs2)c(OCCN2CCNC2=O)c1` [compound 2, reference compound], the EC50 in assay [1] was 27.9 ± 4.4 µM; in assay [2] (setting [3]), over 75 µM.
Turning to `NCCCCc1cn(-c2ccc(-c3nc(CCc4ccc(-c5ccccc5)cc4)cs3)c(OCCN3CCNC3=O)c2)nn1.O=C(O)C(F)(F)F` [12c, 1-(2-(2-(4-(2-([1,1′-Biphenyl]-4-yl)ethyl)thiazol-2-yl)-5-(4-(4-ammoniumbutyl)-1H-1,2,3-triazol-1-yl)phenoxy)ethyl)imidazolidin-2-one 2,2,2-Trifluoroacetate], the EC50 in assay [1] was over 75 µM; in assay [2] (setting [4]), 46.5 ± 1.5 µM. In addition, the IC50 at TbTryR (setting [5]) worked out at 10 ± 2.5 µM.
In the case of `NCCCCc1cn(-c2ccc(-c3nc(-c4ccccc4)c(-c4ccccc4)s3)c(OCCN3CCNC3=O)c2)nn1.O=C(O)C(F)(F)F` [19a, 1-(2-(5-(4-(4-Ammoniobutyl)-1H-1,2,3-triazol-1-yl)-2-(4,5-diphenylthiazol-2-yl)phenoxy)ethyl)imidazolidin-2-one 2,2,2-Trifluoroacetate], the IC50 at TbTryR (setting [5]) came out at 7.3 ± 0.6 µM.
`NCCCCc1cn(-c2ccc(-c3nc(CCc4ccc5ccccc5c4)cs3)c(OCCN3CCNC3=O)c2)nn1.O=C(O)C(F)(F)F` [12b, 1-(2-(5-(4-(4-Ammoniumbutyl)-1H-1,2,3-triazol-1-yl)-2-(4-(2-(naphthalen-2-yl)ethyl)thiazol-2-yl)phenoxy)ethyl)imidazolidin-2-one 2,2,2-Trifluoroacetate]: the EC50 in assay [1] and in assay [2] (setting [4]) was over 75 µM throughout. Further, the IC50 on TbTryR (setting [5]) is 9.7 ± 2.1 µM.
As for `NCCNCc1nccn1-c1ccc(-c2nc(CCc3ccc(-c4ccccc4)cc3)cs2)c(OCCN2CCNC2=O)c1` [compound 3, reference compound], the EC50 in assay [1] is 15.5 ± 1.8 µM; in assay [2] (setting [3]), over 75 µM.
With `NCCCc1cn(-c2ccc(-c3nc(CCc4ccc(-c5ccccc5)cc4)cs3)c(OCCN3CCNC3=O)c2)nn1.O=C(O)C(F)(F)F` [12i], the EC50 in assay [1] is over 75 µM; in assay [2] (setting [3]), 54.5 µM; in assay [2] (amastigote-infected THP-1 macrophages, 72 h, read-out: EC50 intracellular amastigotes), 54.4 ± 15.5 µM.
`NCCCCc1cn(-c2ccc(-c3nc(CCc4ccc5c(c4)CCO5)cs3)c(OCCN3CCNC3=O)c2)nn1.O=C(O)C(F)(F)F` [12r] displayed an IC50 on TbTryR of 15 ± 2.9 µM.
For `NCCCCc1cn(-c2ccc(-c3nc(-c4ccc(Oc5ccccc5)cc4)c(-c4ccccc4)s3)c(OCCN3CCNC3=O)c2)nn1.O=C(O)C(F)(F)F` [19c, 1-(2-(5-(4-(4-Ammoniobutyl)-1H-1,2,3-triazol-1-yl)-2-(4-([4-phenyloxyphenyl]-1-yl)-5-phenylthiazol-2-yl)phenoxy)ethyl)imidazolidin-2-one 2,2,2-Trifluoroacetate], the EC50 in assay [1] and in assay [2] (setting [4]) was over 75 µM throughout.
As for `NCCCCc1cn(-c2ccc(-c3nc(-c4ccccc4)cs3)c(OCCN3CCNC3=O)c2)nn1.O=C(O)C(F)(F)F` [12n], the IC50 at TbTryR (setting [5]) stood at 12.5 ± 1.9 µM.

(Values after PMC8480782, “Efficient Dimerization Disruption of Leishmania infantum Trypanothione Reductase by Triazole-phenyl-thiazoles” (Journal of Medicinal Chemistry, 2021).)
